The source of these data is patent US9556437B2, “FAT1 gene in cancer and inflammation” (DEPARTMENT OF BIOTECHNOLOGY (DBT), priority 2012, dated 2017).

Type in all cases: cell-based, human
One series concerns VEGF-C. Description: VEGF-C mRNA expression by q-PCR. The following applies: U87MGsiFAT1 cells. As to the method: (§1) Cell Culture and siRNA Transfection: The human glioma cell lines U87MG, U373, A172, T98G, GOS3 and SW1088 were obtained from ATCC; Rockville, Md., cultured in DMEM (Sigma-Aldrich, Switzerland) supplemented with 10% (v/v) FCS (Sigma-Aldrich), 3.7 g/l sodium bicarbonate (Sigma-Aldrich), Ciprofloxacin 10 μg/ml and 5% CO2 at 37° C. For transfection, 2×10^5 cells were seeded per 25 cm^2 flask. After 24 hrs, cells were transfected with FAT1 siRNA and universal medium GC control siRNA (Invitrogen) according to the manufacturer's protocol with a final concentration of 20 nM of siRNA using LIPOFECTAMINE 2000 (Invitrogen) and Opti-Mem media (Invitrogen). After 4 hrs of siRNA transfection, the media was supplemented with DMEM containing 2×FCS. The ability of each siRNA to mediate knockdown of FAT1 mRNA was confirmed using qRT-PCR. Photomicrographs of the cells were taken using an inverted phase contrast microscope (Nikon TMS, Phase contrast microscope, Japan). For simultaneous knockdown of FAT1 and PDCD4, siRNA from Dharmacon were used. Transfection was performed as earlier with 50 nM of FAT1 siRNA along with 50 nM of PDCD4 siRNA or 50 nM of control siRNA.
cDNA Synthesis and Quantitative PCR: Total RNA was isolated from cells at appropriate time point (vide supra) using TRIzol reagent (Invitrogen), quantified using a Nanodrop ND-1000 spectrophotometer. […]

The subject of a further series is IL1β. Description: IL1β mRNA expression by q-PCR. To be noted: U87MGsiFAT1 vs siControl. As for the experimental part: as §1, with “The ability of each siRNA to mediate knockdown of FAT1 mRNA was confirmed using qRT-PCR.” left out
cDNA Synthesis and Quantitative PCR: Total RNA was isolated from cells at appropriate time point (vide supra) using TRIzol reagent (Invitrogen), quantified using a Nanodrop ND-1000 spectrophotometer.

Another series concerns PGE2. The series is described as follows: PGE2 ELISA of conditioned medium. To be noted: U87MGsiFAT1 vs siControl, 72 hrs, p<0.01. As to the method: PGE2 ELISA: U87MG cells (2.5×10^5 cells/flask) were plated into 25 cm^2 flask. Transfection was performed on day 1 and 72 hrs later, the conditioned medium was collected and concentrated using Centricon YM-30. The concentration of PGE2 secreted into the medium was measured with an EIA kit for human PGE2 (Cayman Chemical, Michigan, USA).

The test system of the next series is PDCD4. The series is described as follows: Western blot PDCD4 protein. The following applies: U87MG, A172, U373MG and T98G, vs siControl. As to the method:
Western Blotting Analyses: Cells were lysed in triple detergent buffer containing protease and phosphatase inhibitors (Sigma Aldrich), lysates were quantified by BCA kit (Pierce, Thermo Fisher Scientific, Rockford, Ill. USA) and electrophoresed in 10% SDS-PAGE and electroblotted on nitrocellulose membrane (Millipore, Billerica, Mass., USA). Membrane was blocked with 5% bovine serum albumin (BSA) in 1×TBS at 4° C. for overnight. Primary and secondary antibody was diluted in 5% BSA and 0.1% tween-20 in 1×TBS. Blot was incubated in primary antibody overnight at 4° C. followed by secondary antibody incubation for 2 hrs at room temperature. Blot was developed by BCIP-NBT (Promega, Madison, Wis., USA) and captured using Alpha Imager EP software.
Background: Immunoblotting shows a protein as a band on a membrane.

Series [1] concerns U87MG cells. The series is described as follows: Cell cycle analysis by flow cytometry (PI staining). The following applies: FACS, 72 hrs after transfection, vs siControl. As to the method: (§2) On day 1, siRNA transfection was carried out. 1 ml of OPTIMEM, 50 picomoles of siRNA (siControl and siFAT1) and 3 μl of LIPOFECTAMINE 2000 was used per well. Cells were then analyzed by flow-cytometery after 72 hrs of transfection to assess the cell cycle distribution of individual cells. Cells were fixed in 70% ethanol overnight at −20′C followed by propidium iodide (PI) staining. Florescence was measured on FACS (florescence activated cell sorter, BD Biosciences, Bedford, Mass.). […] On day 1, transfection was carried out. 50 μl of OPTIMEM, 2 picomoles of siRNA (control and FAT1 siRNA) and 0.5 μl of LIPOFECTAMINE 2000 was used per well. After 4 hrs incubation at 37° C., 50 μl 2× media was added per well. After every time point (24, 48, 72 and 96 hrs of transfection), media was removed from wells and 100 μl of MTT (0.2 mg/ml) was added per well and incubated for 2-4 hrs. The formazan crystals formed were dissolved by addition of 100 μl of DMSO and absorbance was measured at 570 nm.
Background: A flow cytometer gives signals particle by particle.

The subject of series [2] is U87MG cells. The series is described as follows: MTT assay. The following applies: 24, 48, 72 and 96 hrs of transfection, vs siControl. As for the experimental part:
as §2
(Formazan colour is commonly taken as a measure of viable cells.)

Series [3] relates to U87MG cells. Description: Apoptosis by caspase3 Western blot and DAPI staining. The following applies: 72 hrs of transfection.

“Also recorded” adds a separate entry of the source.

With “siFAT1: FAT1 specific siRNA (Invitrogen), FAT Stealth RNAi siRNA-I (HSS103567), used for further experiments (sense CCCAACACACCUGUGGUCAUGGUAA; antisense UUACCAUGACCACAGGUGUGUUGGG; Stealth modification, chemistry not fully specified; listed as Homo sapiens)”, in the series with VEGF-C, the “decrease in VEGF-C mRNA expression” value is listed as “more than 10 fold”. Further, the “reduction in IL1β mRNA expression” value with IL1β is about 10 fold. In addition, the “reduction of PGE2 secreted into the medium” value with PGE2 is given as over 2 fold. Moreover, the PDCD4 protein level entry in the series with PDCD4 is listed as “increased”. In addition, in the series with U87MG cells [1], the “distribution of cell population in different phases of cell cycle” value was “no variation; also recorded: No difference”. Besides, the “cell viability / proliferation by MTT” value with U87MG cells [2] is “no variation; also recorded: No significant difference”. Also, in the series with U87MG cells [3], the “DNA fragmentation (DAPI staining)” value is given as “no DNA fragmentation; also recorded: No differences” and the “cleaved caspase-3 (Western blot)” value is “no cleaved caspase-3; also recorded: No differences”.
